In a melting point compilation (Tetko et al.; mined from patent text by program, amines drawn as free bases though some values may be those of a salt):

Row | Structure (SMILES) | melting point [°C]
1 | Cc1nnc2n1-c1sc(C#CCN3C(=O)c4ccccc4S3(=O)=O)cc1C(c1ccccc1Cl)=NC2 | 232 to 234
2 | Oc1cccc(CC2c3ccccc3CCc3ccccc32)c1 | 76.6
3 | CC(C)Cc1cc(-c2cc(C=C3SC(=O)NC3=O)ccc2OC(F)(F)F)c2c(c1)C(C)(C)CO2 | 142 to 146
4 | Cn1c([N+](=O)[O-])cnc1-c1nc2ccccc2n1CCN1CCOCC1 | 237
5 | Fc1cc(CNC(=S)NCC(F)(F)F)ccc1OCC(F)(F)F | 88 to 90
6 | CN(C)Cc1ccc(CNC(=O)C2Cc3ccccc3N2S(=O)(=O)c2ccc(-c3ccccc3C(F)(F)F)cc2)cc1 (stereo not drawn) | 53
7 | Cc1cccc(-n2c(Cn3ccnc3)nc3ccccc32)c1 | 91 to 93
8 | O=C(O)Cn1cc(Cc2nc3c(F)c(F)cc(F)c3s2)c2ccccc21 | 177 to 178
9 | O=C(O)[C@@H]1CC2(CN1C(=O)OCc1ccccc1)OCCO2 | 179 to 180
10 | CC=Cn1c(C)c(C)c2cnnc(OCc3ccc(F)cc3)c21 | 114 to 115
11 | O=C(O)C(O)=CC(=O)c1cn(Cc2ccccc2)c(=O)n(Cc2ccccc2)c1=O | 186 to 188
12 | CC(C)(C)C(=O)OCCN(CCOC(=O)C(C)(C)C)C(=O)COC(=O)C(C)(C)C | 51.4
13 | CS(=O)CCCn1c(=N)sc2cc(OC(F)(F)F)ccc21 (racemic) | 114
14 | O=C(CCCCCOc1cc(-c2ccccc2)c2ccccc2n1)N1CCCC1 | 52 to 54
15 | O=C(O)COc1cccc2c1CCc1sc(SC(c3ccccc3)c3ccccc3)nc1-2 | 176 to 179
16 | OC(c1ccc(Cl)cc1)(c1ccc(Cl)cc1)c1nccn1Cc1ccc(Cl)cc1 | 171 to 173
17 | O=C(Nc1ccc(Oc2ccc(C(O)CCC(=O)N3CCOCC3)cc2)c(F)c1)c1ccc(Cl)c(Cl)c1 (stereo not drawn) | 108 to 111
18 | CN(Cc1ccc(F)cc1)C1CCN(c2ccc(Cl)cc2)CC1 | 72 to 73
19 | c1ccc(C2CN=C3NCCN32)cc1 (stereo not drawn) | 167 to 170
20 | COC(=O)C(CC(C)([N+](=O)[O-])[N+](=O)[O-])C(=O)OC | 44
21 | O=C(Cc1cc(C(=O)c2ccc(I)c([N+](=O)[O-])c2)sc1-c1ccccc1)NO | 147 to 151
22 | COC(=O)[C@H]1CO[C@@H](C(C)(C)C)N1C(=O)Cl | 78

Row | Structure (SMILES) | melting point [°C]
23 | Cn1ncc2c1-c1c(Oc3cccnc3OCCN3CCCC3=O)sc(C(=O)O)c1CC2 | 202 to 204
24 | CC1(C(=O)P(=O)(c2ccccc2)c2ccccc2)CCCCC1 | 80
25 | Cc1nnc2n1-c1sc(C#CCn3c4c(c5ccccc53)CCCC4)cc1C(c1ccccc1Cl)=NC2 | 164 to 166
26 | CCOC(=O)c1cn(C2CC2)c2c(F)c(CCc3cc(Cc4cnc(N)nc4N)cc(OC)c3OC)c(F)cc2c1=O | 218 to 220
27 | CSc1ccc(C(O)c2occc(=O)c2OCc2ccccc2)cc1 (stereo not drawn) | 82 to 82.5
28 | CNCCON=C1c2ccccc2C2CC2c2ccccc21 (stereo not drawn) | 100 to 101
29 | CN(SSN(C)S(=O)(=O)c1ccccc1)S(=O)(=O)c1ccccc1 | 101 to 106
30 | O=[N+]([O-])c1ccc(Br)cc1-c1cc(-c2cccc(Br)c2)on1 | 195 to 197
31 | CC(C)(C)c1cc(CNc2cccc(Br)c2CO)c(C(=O)O)s1 | 68 to 69
32 | C=CCn1nnc2cc3c(=O)n(C(C)Cn4ncnn4)nnc3cc2c1=O (stereo not drawn) | 159 to 161
33 | COc1ccc2c(n1)c(CC[N+](=O)[O-])c1n2Cc2ccccc2-1 | 127 to 128
34 | CN(N=Cc1ccc([N+](=O)[O-])cc1)C1=NOCc2ccc(Cl)cc21 | 251
35 | Cc1cc(OCC(=O)O)ccc1NC(=O)c1ccc(N2CCNCC2)cc1 | > 250
36 | COc1ccc(C(=CC#N)c2ccc(OC)c(OC)c2)cc1NC(C)=O | 139 to 141
37 | CCCc1nc2c(N)nc3cc(-c4ccccc4C(N)=O)ccc3c2s1 | 274 to 276
38 | Fc1ccc(C2(Cl)CN(C(c3ccccc3)c3ccccc3)C2)cc1 | 108 to 109
39 | CC(=O)c1ccc2c(NCc3ccc(NC(=O)c4ccc(F)cc4)cc3)nc(N(C)C)nc2c1 | 195
40 | C1=CNc2ccccc2C=N1 | 165 to 167
41 | O=C(O)c1cn(C2CC2)c2c(F)c(N3CC(C(=O)O)C3)c(F)cc2c1=O | 251 to 255
42 | O=C(NCCO)C(O)C(Oc1ccccc1[N+](=O)[O-])c1ccccc1 (stereo not drawn) | 166 to 188
43 | CC(C)(Oc1cccc(C(=O)c2ccc(C(F)(F)F)cc2)c1)C(=O)O | 133
44 | C[C@@H](N(CC(=O)O)C(=O)c1ccc(OCC(F)(F)C(F)F)cc1)[C@](O)(Cn1cncn1)c1ccc(Cl)cc1Cl (relative stereo) | 192 to 193

Row | Structure (SMILES) | melting point [°C]
45 | OC1CSC(Oc2cc(-c3cncnc3)cc(F)c2F)C(O)C1O (stereo not drawn) | 191
46 | COC1Oc2c(c(=O)oc3cc(O)ccc23)C1c1c(O)c2ccc(O)cc2oc1=O (stereo not drawn) | > 300
47 | CN1C(=O)COc2c1cc(Cl)c([N+](=O)[O-])c2C(=O)O | 257
48 | Cc1oc(-c2ccco2)nc1COc1ccc(COc2nn(Cc3ccccc3)cc2C(N)=O)cc1 | 139 to 140
49 | COC1=C(OC)C(=O)C2=C(CCC(CCn3c(=O)ccc4ccccc43)CC2)C1=O | 88 to 90
50 | CN1CCC23c4c5ccc(OCCCN)c4OC2C(O)C=CC3C1C5 (stereo not drawn) | 132 to 134
51 | C=CCOC(=O)c1ccc(N=C(NC)c2ccc(OC)c(C34CC5CC(CC(C5)C3)C4)c2)cc1 | 77 to 79
52 | CS(=O)(=O)c1ccc(-c2cnn(Cc3cccc([N+](=O)[O-])c3)c(=O)c2-c2ccc(F)cc2)cc1 | 156 to 157
53 | CC(=O)OC1NC(=O)C1C(C)O[Si](C)(C)C(C)(C)C(C)C (stereo not drawn) | 80 to 81
54 | OCCOC(c1ccccc1)c1ccccc1 | 95 to 97
55 | CCOC(=O)c1cc2ccc3c4ccccc4ccc3c2n1C | 136 to 138
56 | CC(Oc1ncn(-c2ccc(Br)cc2)n1)C(=O)NC1CC1 (stereo not drawn) | 170 to 172
57 | COc1cccc2c1-c1c(OC(C)C)cccc1C2=O | 118 to 120
58 | O=C(NCCOC1CCCCO1)c1cc([N+](=O)[O-])cc([N+](=O)[O-])c1N(CCO)CCBr (stereo not drawn) | 121 to 123
59 | CCc1ccc(C)c(NC(=O)C(C)(C)C)n1 | 72 to 75
60 | Cc1nc(O)c2c(n1)CCN(c1nc(C)nc(O)c1[N+](=O)[O-])CC2 | > 200
61 | O=C1NCN(c2ccccc2)C12CCN(CCCn1cnc3ccccc31)CC2 | 191
62 | CC(CCCc1ccccc1)Oc1cc(O)c2c(c1)CC(C)(C)CC2C(N)=O (stereo not drawn) | 155 to 157
63 | Cc1ccc(-c2ccc(C(=O)c3ccccc3)cc2)cc1 | 124 to 125
64 | CC(C)(CNc1ccc(C(=O)CCCC(=O)O)cc1)[N+](=O)[O-] | 160 to 161

Results, then the molecule that gave them:

Row | melting point [°C] | Structure (SMILES)
65 | 205 | CS(=O)(=O)Nc1cncc(C(=NCCc2ccccc2Cl)NC#N)c1
66 | 156 to 158 | O=C1CCCc2sc(-c3ccncc3)cc21
67 | 132 to 133 | CC(C)(C)OC(=O)N1CCc2c(n(CCOc3ccccc3)c3cc(Cl)cc(Cl)c23)CC1
68 | 138 to 139 | CN(C)C=C(C#N)C(=O)Nc1ccc(F)cc1Cl
69 | 115 to 116 | COc1ccc(CCC(=O)C2C(=O)C=C(C)OC2=O)cc1O (stereo not drawn)
70 | 47 to 49 | Cc1cc(N(C)C)ccc1Br
71 | 130 to 133 | O=c1c2cc(Oc3ccc(Cl)cc3)ccc2ncn1Cc1cccnc1
72 | 140 to 141 | CN(C)C(=O)COC(=O)c1ccc(Cl)cc1OCC(=O)N(C)C
73 | 215 to 220 | O=C(O)Cc1c(C(=O)c2ccc(Cl)cc2)[nH]c2cc(Cl)c(F)cc12
74 | 244 | NS(=O)(=O)c1cc2nc[nH]c2cc1Cl
75 | 224 | COc1cc2cc(C#N)c(Cl)nc2cc1OC
76 | 265 to 270 | Cn1c(=O)[nH]c(=O)n(-c2cc(O)ccc2Br)c1=O
77 | 210 to 214 | Cc1c(S(C)=O)c(C=NO)nn1-c1c(Cl)cc(C(F)(F)F)cc1Cl (stereo not drawn)
78 | 137 to 142 | CSC1C(=O)Nc2ccc(Oc3cc(F)c(C(F)(F)F)c(Cl)c3)cc21 (stereo not drawn)
79 | 113 to 114 | Nc1cccc(Cl)c1O
80 | 312 to 315 | Cc1cc2c(=O)n3cc(C(=O)O)ccc3nc2s1
81 | 216 to 218 | NC1=CN(N)NN=C1c1cccc(Cl)c1Cl

Row | melting point [°C] | Structure (SMILES)
82 | 79 to 81 | CCc1nn(-c2cc(NC(=O)c3ccccc3)ccc2Cl)c(=O)n1Cc1ccc(-c2ccccc2S(=O)(=O)NC(=O)OC(C)(C)C)cc1F
83 | > 240 | CC(C)(C)c1cc(-c2ccc(C(=O)O)c(C(C)(C)C)c2)ccc1O
84 | 188 to 189 | O=C1CN2Cc3cc(OCCCCCCn4ccnc4)ccc3N=C2N1
85 | 249 to 252 | CCCC(=O)c1cc2c(=O)c(C(=O)O)c[nH]c2cc1C
86 | 44.1 to 45.5 | CCc1ncnc(Sc2ccc(Cl)cc2)c1F
87 | 220 to 225 | NC(=O)c1coc2ccccc2c1=O
88 | 99 to 100 | CCOc1cccc(-c2cc3n(n2)-c2ccccc2CC3)c1
89 | 92 to 94 | O=C(Nc1ccc(N2CCN(Cc3ccccc3)CC2)c(Cl)c1)c1ccccn1
90 | > 260 | Cc1cc2nncc(O)c2cc1C
91 | 133 to 135 | COc1ccc(CCNC(=O)CNc2cccc(C(N)=O)c2)cc1OC
92 | 53 to 54 | Cn1nc(-c2c(F)cccc2Cl)nc1-c1cc(-c2cccc(C(F)(F)F)c2)sc1Cl
93 | > 250 | COc1cc2c(-c3ccncc3)c(C(=O)O)oc(=O)c2cc1OC
94 | 224 | Cn1c(=O)c2c(ncn2CC(N)=NO)n(C)c1=O
95 | 181 to 183 | Cc1csc(-c2cc3cccc(NS(=O)(=O)c4cccs4)c3[nH]2)n1
96 | 68 to 70 | Fc1c2c(nc3cc(Cl)ccc13)CCCC2
97 | 181 to 184 | NS(=O)(=O)c1ccc(NC(=O)NCCCCCCNC(=O)n2cc(F)c(=O)[nH]c2=O)cc1
98 | 149 to 154 | CC(=O)OCSc1ccc2c3c(cccc13)C(=O)N2
